The values that follow are results of earlier work, collected in patent US20160166510A1, “STABILIZED PROLONGED RELEASE PHARMACEUTICAL COMPOSITION COMPRISING ATYPICAL ANTIPSYCHOTIC” (INVENTIA HEALTHCARE PRIVATE LIMITED, priority 2010, published 2016).

Like-named read-outs stand apart in the source and are kept apart here.

With `Cc1nc2n(c(=O)c1CCN1CCC(c3noc4cc(F)ccc34)CC1)CCCC2O` (stereo not drawn) [Paliperidone], the Solubility entry runs as follows: (in 0.1 N HCl) “sparingly soluble”; (in methylene chloride) “sparingly soluble”; (in water) “practically insoluble”.
